Several values for one entry are separate records, joined by “and”; a condition that tells them apart may be missing. Identical values can stand only once. Inconclusive results and toxic doses are left out. Rule for the calls: active = survival T/C of 150% or more; inactive = T/C below 125% in these data.
System: BDF1 mice, Lewis lung carcinoma iv, survival T/C
Experiment: NCI In Vivo Anticancer Drug Screen. Data for tumor model Lewis Lung Carcinoma (intravenous) in B6D2F1 (BDF1) mice
Settings: endpoint: median survival time, higher = longer survival
Method: The antitumor activity of compounds was measured in mice bearing transplantable tumors. Survival or tumor size were measured and the results are expressed as the measurement made in the treated group (T) divided by the measurement made in the vehicle treated control group (C). The tumor model used in this assay is Lewis Lung Carcinoma (intravenous) in B6D2F1 (BDF1) mice

[1] = dose: 100.0 mg/kg/injection, schedule: Q01DX009 (ip), vehicle: saline with Tween-80
[2] = dose: 200.0 mg/kg/injection, schedule: Q01DX009 (ip), vehicle: saline with Tween-80
[3] = dose: 25.0 mg/kg/injection, schedule: Q01DX009 (ip), vehicle: saline with Tween-80
[4] = dose: 50.0 mg/kg/injection, schedule: Q01DX009 (ip), vehicle: saline with Tween-80
[5] = dose: 3.12 mg/kg/injection, schedule: Q01DX009 (ip), vehicle: Klucel (hydroxypropylcellulose) (HPC)
[6] = dose: 6.25 mg/kg/injection, schedule: Q01DX009 (ip), vehicle: Klucel (hydroxypropylcellulose) (HPC)
[7] = dose: 6.25 mg/kg/injection, schedule: Q01DX009 (ip), vehicle: saline
[8] = dose: 12.5 mg/kg/injection, schedule: Q01DX009 (ip), vehicle: saline

Measured: T/C

C[C@]12CC[C@H]3[C@@H](CCC4=C[C@@H](OC5OCC(OC6OC(CO)C(O)C(O)C6O)C(O)C5O)CC[C@@]43C=O)[C@@]1(O)CCC2C1=CC(=O)OC1 (stereo partly specified)
inactive: dose: 0.16 mg/kg/injection, schedule: Q01DX009 (ip), vehicle: Klucel (hydroxypropylcellulose) (HPC) 99 % of control | dose: 0.31 mg/kg/injection, schedule: Q01DX009 (ip), vehicle: Klucel (hydroxypropylcellulose) (HPC) 100 % of control | dose: 0.63 mg/kg/injection, schedule: Q01DX009 (ip), vehicle: Klucel (hydroxypropylcellulose) (HPC) 102 % of control | dose: 1.25 mg/kg/injection, schedule: Q01DX009 (ip), vehicle: Klucel (hydroxypropylcellulose) (HPC) 99 % of control | dose: 2.5 mg/kg/injection, schedule: Q01DX009 (ip), vehicle: Klucel (hydroxypropylcellulose) (HPC) 122 % of control | dose: 5.0 mg/kg/injection, schedule: Q01DX009 (ip), vehicle: Klucel (hydroxypropylcellulose) (HPC) 122 % of control

CC(C)CC(NC(=O)CF)C(=O)O (stereo unspecified)
inactive: dose: 0.31 mg/kg/injection, schedule: Q01DX009 (ip), vehicle: saline 98 % of control | dose: 0.63 mg/kg/injection, schedule: Q01DX009 (ip), vehicle: saline 94 % of control | dose: 1.25 mg/kg/injection, schedule: Q01DX009 (ip), vehicle: saline 90 % of control | dose: 2.5 mg/kg/injection, schedule: Q01DX009 (ip), vehicle: saline 102 % of control | dose: 5.0 mg/kg/injection, schedule: Q01DX009 (ip), vehicle: saline 91 % of control

O=c1[nH]c(=O)n(C2CC(O)C(CO)O2)cc1I (stereo unspecified)
inactive: [1] 99 % of control | [2] 108 % of control

CCCCCCCCCCCCCCCC[N+]1(C)CCN(SN2CC[N+](C)(CCCCCCCCCCCCCCCC)CC2)CC1
inactive: [3] 109 % of control | [4] 100 % of control | [1] 104 % of control

C[C@@H]1CN(C(=O)CCOS(C)(=O)=O)[C@@H](C)CN1C(=O)CCOS(C)(=O)=O
inactive: [4] 93 % of control | [1] 101 % of control

[Cl][Mn][Cl]
inactive: dose: 1.0 mg/kg/injection, schedule: Q01DX009 (ip), vehicle: saline 109 % of control | dose: 2.0 mg/kg/injection, schedule: Q01DX009 (ip), vehicle: saline 99 % of control | dose: 4.0 mg/kg/injection, schedule: Q01DX009 (ip), vehicle: saline 105 % of control and 90 % of control | dose: 8.0 mg/kg/injection, schedule: Q01DX009 (ip), vehicle: saline 101 % of control and 121 % of control | dose: 16.0 mg/kg/injection, schedule: Q01DX009 (ip), vehicle: saline 91 % of control and 101 % of control | dose: 32.0 mg/kg/injection, schedule: Q01DX009 (ip), vehicle: saline 94 % of control and 98 % of control | dose: 64.0 mg/kg/injection, schedule: Q01DX009 (ip), vehicle: saline 96 % of control and 108 % of control

Nc1cc(Cl)c2[nH]cnc2n1
inactive: dose: 6.25 mg/kg/injection, schedule: Q01DX009 (ip), vehicle: distilled water + Tween-80 106 % of control | dose: 12.5 mg/kg/injection, schedule: Q01DX009 (ip), vehicle: distilled water + Tween-80 98 % of control | dose: 25.0 mg/kg/injection, schedule: Q01DX009 (ip), vehicle: distilled water + Tween-80 109 % of control | dose: 50.0 mg/kg/injection, schedule: Q01DX009 (ip), vehicle: distilled water + Tween-80 113 % of control | dose: 100.0 mg/kg/injection, schedule: Q01DX009 (ip), vehicle: distilled water + Tween-80 107 % of control

COc1cccc2c1C(=O)c1c(O)c3c(c(O)c1C2=O)CC(O)(/C(C)=N/NC(=O)CCC(=O)N/N=C(\C)C1(O)Cc2c(O)c4c(c(O)c2C(OC2CC(N)C(O)C(C)O2)C1)C(=O)c1c(OC)cccc1C4=O)CC3OC1CC(N)C(O)C(C)O1 (stereo unspecified)
inactive: dose: 1.5 mg/kg/injection, schedule: Q01DX009 (ip), vehicle: water 96 % of control | dose: 3.0 mg/kg/injection, schedule: Q01DX009 (ip), vehicle: water 108 % of control | dose: 6.0 mg/kg/injection, schedule: Q01DX009 (ip), vehicle: water 101 % of control | dose: 12.0 mg/kg/injection, schedule: Q01DX009 (ip), vehicle: water 123 % of control

CC(=O)OCC(=O)[C@@]12OC(C)(C)O[C@@H]1C[C@H]1[C@@H]3CC(C=O)=C4C=C(OCCCl)CC[C@]4(C)[C@@]3(F)[C@@H](O)C[C@@]12C
inactive: dose: 1.56 mg/kg/injection, schedule: Q01DX009 (ip), vehicle: Klucel (hydroxypropylcellulose) (HPC) 104 % of control | [5] 100 % of control | dose: 3.13 mg/kg/injection, schedule: Q01DX009 (ip), vehicle: Klucel (hydroxypropylcellulose) (HPC) 110 % of control | [6] 102 % of control and 112 % of control | dose: 12.5 mg/kg/injection, schedule: Q01DX009 (ip), vehicle: Klucel (hydroxypropylcellulose) (HPC) 104 % of control and 121 % of control

CC[C@@]1(O)C[C@H](OC2CC(N(C)C)C(OC3CC(O)C(OC4CCC(=O)C(C)O4)C(C)O3)C(C)O2)c2c(cc3c(c2O)C(=O)c2c(O)ccc(O)c2C3=O)[C@H]1C(=O)OC (stereo partly specified)
inactive: dose: 0.12 mg/kg/injection, schedule: Q01DX009 (ip), vehicle: water 103 % of control | dose: 0.25 mg/kg/injection, schedule: Q01DX009 (ip), vehicle: water 103 % of control and 107 % of control | dose: 0.5 mg/kg/injection, schedule: Q01DX009 (ip), vehicle: water 96 % of control and 101 % of control | dose: 0.88 mg/kg/injection, schedule: Q01DX009 (ip), vehicle: water 117 % of control | dose: 1.0 mg/kg/injection, schedule: Q01DX009 (ip), vehicle: water 103 % of control | dose: 1.7 mg/kg/injection, schedule: Q04DX003 (ip), vehicle: water 94 % of control | dose: 1.92 mg/kg/injection, schedule: Q04DX003 (ip), vehicle: water 110 % of control | dose: 2.9 mg/kg/injection, schedule: Q04DX003 (ip), vehicle: water 100 % of control and 117 % of control | dose: 3.9 mg/kg/injection, schedule: Q04DX003 (ip), vehicle: water 118 % of control | dose: 4.8 mg/kg/injection, schedule: Q01DX001 (ip), vehicle: water 109 % of control | dose: 4.8 mg/kg/injection, schedule: Q04DX003 (ip), vehicle: water 109 % of control and 122 % of control | dose: 6.86 mg/kg/injection, schedule: Q01DX001 (ip), vehicle: water 123 % of control | dose: 8.0 mg/kg/injection, schedule: Q04DX003 (ip), vehicle: water 104 % of control | dose: 13.3 mg/kg/injection, schedule: Q04DX003 (ip), vehicle: water 86 % of control

CC(=O)N(C)c1ccc(Nc2cc(C)[nH]c3ccc4ncnc4c23)cc1
inactive: [7] 97 % of control | [8] 93 % of control | dose: 25.0 mg/kg/injection, schedule: Q01DX009 (ip), vehicle: saline 93 % of control | dose: 50.0 mg/kg/injection, schedule: Q01DX009 (ip), vehicle: saline 117 % of control

[Cl][Sn]([c]1ccccc1)[c]1ccccc1
inactive: dose: 3.12 mg/kg/injection, schedule: Q01DX009 (ip), vehicle: saline 104 % of control | [7] 97 % of control | [8] 98 % of control

O=C(Nc1ccc(Cl)c(Cl)c1)Nc1c(Oc2ccc(Cl)c(Cl)c2)ccc(Cl)c1S(=O)(=O)O
inactive: [5] 113 % of control | [6] 104 % of control | dose: 25.0 mg/kg/injection, schedule: Q01DX009 (ip), vehicle: Klucel (hydroxypropylcellulose) (HPC) 109 % of control | dose: 50.0 mg/kg/injection, schedule: Q01DX009 (ip), vehicle: Klucel (hydroxypropylcellulose) (HPC) 105 % of control | dose: 100.0 mg/kg/injection, schedule: Q01DX009 (ip), vehicle: Klucel (hydroxypropylcellulose) (HPC) 100 % of control

N#CCCSC(=S)C1CCCC1=N (stereo unspecified)
inactive: dose: 12.5 mg/kg/injection, schedule: Q01DX009 (ip), vehicle: saline with Tween-80 105 % of control | [3] 101 % of control | [4] 106 % of control | [1] 93 % of control | [2] 98 % of control | dose: 400.0 mg/kg/injection, schedule: Q01DX009 (ip), vehicle: saline with Tween-80 106 % of control
